Experimental data taken from patent US20170217948A1, “XANTHINE OXIDASE INHIBITOR” (Teijin Pharma Limited, priority 2014, published 2017).
Where two headings read alike, the source gives them in different places.

How the values were obtained:
[1] = molecular target: XO activity (oxidase-type xanthine oxidoreductase) (Rattus norvegicus, UniProt P22985); experiment: Prolonged inhibition of tissue and plasma XO activity after oral administration (pterin-based assay); conditions: 27 h
Experimental: The tissue includes liver, kidney, adipose tissue, intestine and vessel.
A test compound suspended in a 0.5% methylcellulose solution was administered to 7 to 9 week-old Sprague-Dawley male rats (Japan Charles River Co.) by oral gavage administration using a feeding needle. The blood was collected from the abdominal vein and tissue was collected at 24 or 27 hours after administration. Plasma sample was prepared by centrifugation.
Tissue XO activity, tissue XOR activity and plasma XO activity were measured by the pterin-based assay which utilizes the reaction that pterin is oxidized by each type of xanthine oxidoreductase to produce fluorescent isoxanthopterin. […] Then the homogenates were centrifuged 12,000 rpm for 15 min at 4° C. When measured XO activity, the supernatant of tissue and plasma were respectively co-incubated with 50 μM pterin solution at 37° C. When measured XOR activity, the supernatant of tissue homogenate was co-incubated with 50 μM pterin and 50 μM methylene blue solution at 37° C. As a control, oxidase-type xanthine oxidoreductase (from buttermilk, manufactured by Calbiochem Novabiochem Corp.) was also incubated with pterin solution in the same manner. XO activity and XOR activity of the samples were determined from fluorescence intensity which normalized by the intensity value of control and protein concentration.
The percentage of XO activity inhibition and XOR activity inhibition were determined by the following expression:
Percentage of XO or XOR activity inhibition (%)=(XO or XOR activity of the control animal−XO or XOR activity of the test compound-administered animal)×100/XO or XOR activity of the control animal.

[2] = Hypouricemic effect (oxonic acid-induced hyperuricemic beagle dogs); format: in vivo; conditions: hyperuricemic beagle dog, oral, 10 mg/kg, 8 hours after administration
Experimental: Potassium oxonate (50 mg/kg) was subcutaneously administrated before and 4 hours after compound administration. After the blood was collected from the cephalic vein at 8 hours after administration, the plasma was separated. The level of uric acid in the plasma sample was measured by LC-MS/MS method and the percentage of hypouricemic effect was determined by the following expression:
Percentage of hypouricemic effect (%)=(Level of uric acid of the control animal−Level of uric acid of the test compound-administered animal)×100/Level of uric acid of the control animal.

[3] = read-out: % inhibition of XO activity (vs. vehicle), Kidney, 1 mg/kg, 27 hours after administration
[4] = read-out: % inhibition of XO activity (vs. vehicle), Kidney, 10 mg/kg, 27 hours after administration
[5] = read-out: % inhibition of XO activity (vs. vehicle), Liver, 1 mg/kg, 27 hours after administration
[6] = read-out: % inhibition of XO activity (vs. vehicle), Liver, 10 mg/kg, 27 hours after administration
[7] = read-out: % inhibition of XO activity (vs. vehicle), Plasma, 1 mg/kg, 27 hours after administration
[8] = read-out: % inhibition of XO activity (vs. vehicle), Plasma, 10 mg/kg, 27 hours after administration

XO activity (oxidase-type xanthine oxidoreductase), sequence (P22985 whole entry): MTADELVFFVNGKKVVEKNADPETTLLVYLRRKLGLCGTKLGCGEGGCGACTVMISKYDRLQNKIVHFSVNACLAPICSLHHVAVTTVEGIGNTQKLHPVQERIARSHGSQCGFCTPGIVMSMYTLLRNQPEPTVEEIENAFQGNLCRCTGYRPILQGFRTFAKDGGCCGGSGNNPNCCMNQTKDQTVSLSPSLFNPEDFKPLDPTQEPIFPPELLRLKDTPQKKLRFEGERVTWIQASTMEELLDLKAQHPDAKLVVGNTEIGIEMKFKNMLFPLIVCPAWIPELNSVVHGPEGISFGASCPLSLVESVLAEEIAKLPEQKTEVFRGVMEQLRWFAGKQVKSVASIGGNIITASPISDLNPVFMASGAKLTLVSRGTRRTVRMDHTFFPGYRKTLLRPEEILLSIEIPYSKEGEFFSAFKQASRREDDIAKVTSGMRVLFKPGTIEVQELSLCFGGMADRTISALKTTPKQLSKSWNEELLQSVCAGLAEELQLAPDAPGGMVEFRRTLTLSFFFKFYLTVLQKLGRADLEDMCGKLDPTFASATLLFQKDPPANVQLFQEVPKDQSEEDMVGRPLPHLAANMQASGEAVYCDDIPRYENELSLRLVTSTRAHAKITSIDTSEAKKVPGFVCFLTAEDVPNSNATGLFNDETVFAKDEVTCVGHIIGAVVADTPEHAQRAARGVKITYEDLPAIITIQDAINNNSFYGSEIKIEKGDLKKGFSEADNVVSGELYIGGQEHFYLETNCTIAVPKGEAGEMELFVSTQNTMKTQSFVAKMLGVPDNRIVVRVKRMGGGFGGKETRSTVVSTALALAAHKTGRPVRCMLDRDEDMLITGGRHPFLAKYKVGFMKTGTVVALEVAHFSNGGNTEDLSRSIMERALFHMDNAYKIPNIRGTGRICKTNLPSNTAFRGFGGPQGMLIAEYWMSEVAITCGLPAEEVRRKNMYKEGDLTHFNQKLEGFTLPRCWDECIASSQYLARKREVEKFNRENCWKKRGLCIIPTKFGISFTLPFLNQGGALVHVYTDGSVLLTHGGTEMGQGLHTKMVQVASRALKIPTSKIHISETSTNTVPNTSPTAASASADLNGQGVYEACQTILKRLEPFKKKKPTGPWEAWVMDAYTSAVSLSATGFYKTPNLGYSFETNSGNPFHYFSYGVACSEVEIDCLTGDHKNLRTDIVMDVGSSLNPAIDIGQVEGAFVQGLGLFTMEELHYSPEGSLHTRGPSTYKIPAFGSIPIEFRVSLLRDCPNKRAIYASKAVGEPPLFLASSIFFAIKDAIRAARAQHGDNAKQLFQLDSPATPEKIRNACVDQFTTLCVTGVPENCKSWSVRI

Structure (SMILES)	inhibition in vivo at 1 mg/kg [1, 3]	inhibition in vivo at 10 mg/kg [1, 4]	inhibition in vivo at 1 mg/kg [1, 5]	inhibition in vivo at 10 mg/kg [1, 6]	inhibition in vivo at 1 mg/kg [1, 7]	inhibition in vivo at 10 mg/kg [1, 8]	hypouricemic effect [2]
Cc1nc(-c2ccc(OCC(C)C)c(-n3ccnn3)c2)sc1C(=O)O [Compound 17, 4-methyl-2-[4-(2-methylpropoxy)-3-(1H-1,2,3-triazol-1-yl)phenyl]-1,3-thiazole-5-carboxylic acid]	≥ 60%	≥ 70%	≥ 80%	≥ 80%	≥ 25%	≥ 40%	
Cc1nc(-c2ccc(OCC(C)C)c(-n3cnnn3)c2)sc1C(=O)O [Compound 25, 4-methyl-2-[4-(2-methylpropoxy)-3-(1H-1,2,3,4-tetrazol-1-yl)phenyl]-1,3-thiazole-5-carboxylic acid]							showed a hypouricemic effect
Cc1nc(-c2ccc(OCC(C)(C)C)c(-n3cnnn3)c2)sc1C(=O)O [Compound 26, 2-[4-(2,2-dimethylpropoxy)-3-(1H-1,2,3,4-tetrazol-1-yl)phenyl]-4-methyl-1,3-thiazole-5-carboxylic acid]	≥ 60%	≥ 70%	≥ 80%	≥ 80%	≥ 25%	≥ 40%	
